Data set [1] has as its system MRP1-MDR1 chimeras. In kind it is biochemical, human. Particulars: pretreatment with 1 mM.
Description: (§1) The filters were washed twice with 0.5 ml of cold transport buffer, and filter-bound radioactivity was measured in scintillation fluid (Optifluor, Packard). ATP-dependent transport was calculated by subtracting the activity values obtained with AMP from those in the presence of ATP.
Covalent photoaffinty labeling of the proteins was performed with Mg-8-azido-[α-^32P)-ATP in the presence of vanadate as a trapping agent (set Materials and Methods).
Data set [2] has as its target MRP1 variants (Homo sapiens, UniProt P33527). The data set can be described thus: Vanadate-dependent nucleotide trapping by MRP1 variants in Sf9 membranes. As to conditions: pretreatment with 1 mM.
Data set [3] deals with MRP1 (Homo sapiens, UniProt P33527). Nature of the data set: ATP-dependent tracer (LTC4, NEM-GS) uptake in Sf9 membrane vesicles containing MRP1. Particulars: 37° C.
Description: as §1
Data set [4] has as its target co-expressed ΔMRP1+L0 (Homo sapiens, UniProt P33527). Nature of the data set: ATP-dependent tracer (LTC4, NEM-GS) uptake in Sf9 membrane vesicles containing co-expressed ΔMRP1 and L0. As to conditions: read-out: Km for transport of NEM-GS.
Description: as §1
The subject of data set [5] is murine and human cells expressing MRP. As to conditions: cited from earlier work.

MRP1, sequence (P33527 whole entry): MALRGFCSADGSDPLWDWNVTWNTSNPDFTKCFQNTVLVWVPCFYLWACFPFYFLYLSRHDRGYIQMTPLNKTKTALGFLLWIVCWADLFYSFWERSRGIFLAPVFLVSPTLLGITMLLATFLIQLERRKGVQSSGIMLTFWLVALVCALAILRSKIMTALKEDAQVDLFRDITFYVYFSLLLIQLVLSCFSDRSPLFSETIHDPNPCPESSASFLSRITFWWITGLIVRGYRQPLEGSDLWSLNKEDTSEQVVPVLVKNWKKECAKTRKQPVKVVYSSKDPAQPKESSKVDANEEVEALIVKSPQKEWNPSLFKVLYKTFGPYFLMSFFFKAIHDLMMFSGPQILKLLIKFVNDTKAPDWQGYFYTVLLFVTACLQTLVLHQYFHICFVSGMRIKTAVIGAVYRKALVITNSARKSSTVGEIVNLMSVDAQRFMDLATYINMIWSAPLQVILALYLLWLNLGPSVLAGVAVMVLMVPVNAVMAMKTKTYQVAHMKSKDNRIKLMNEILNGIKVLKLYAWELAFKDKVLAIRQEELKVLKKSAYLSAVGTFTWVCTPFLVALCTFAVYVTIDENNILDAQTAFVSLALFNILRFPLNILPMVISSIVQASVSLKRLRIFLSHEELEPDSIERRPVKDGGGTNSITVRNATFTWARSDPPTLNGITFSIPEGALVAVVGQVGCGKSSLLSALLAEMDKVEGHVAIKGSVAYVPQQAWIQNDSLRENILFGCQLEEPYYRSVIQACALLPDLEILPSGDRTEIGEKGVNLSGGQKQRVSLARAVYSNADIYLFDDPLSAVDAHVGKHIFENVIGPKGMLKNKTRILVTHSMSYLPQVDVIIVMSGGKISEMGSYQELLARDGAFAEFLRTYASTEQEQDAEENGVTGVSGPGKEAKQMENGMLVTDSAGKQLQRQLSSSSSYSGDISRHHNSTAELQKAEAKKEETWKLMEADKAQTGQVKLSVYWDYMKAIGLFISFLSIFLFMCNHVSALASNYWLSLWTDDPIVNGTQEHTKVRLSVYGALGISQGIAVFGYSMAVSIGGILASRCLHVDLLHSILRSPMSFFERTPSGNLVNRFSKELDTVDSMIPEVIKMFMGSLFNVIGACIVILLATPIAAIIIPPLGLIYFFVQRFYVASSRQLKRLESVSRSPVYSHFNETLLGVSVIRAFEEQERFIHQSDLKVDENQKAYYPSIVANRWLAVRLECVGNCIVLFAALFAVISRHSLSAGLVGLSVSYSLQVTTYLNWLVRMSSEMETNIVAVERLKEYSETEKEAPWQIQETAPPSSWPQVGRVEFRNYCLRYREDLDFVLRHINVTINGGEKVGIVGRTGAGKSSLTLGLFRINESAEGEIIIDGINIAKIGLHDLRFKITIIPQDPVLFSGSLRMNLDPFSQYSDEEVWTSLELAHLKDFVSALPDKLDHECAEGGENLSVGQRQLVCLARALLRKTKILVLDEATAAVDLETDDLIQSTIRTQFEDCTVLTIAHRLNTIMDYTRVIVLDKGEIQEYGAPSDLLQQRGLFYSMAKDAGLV
MRP1 variants, sequence (P33527 281-1531): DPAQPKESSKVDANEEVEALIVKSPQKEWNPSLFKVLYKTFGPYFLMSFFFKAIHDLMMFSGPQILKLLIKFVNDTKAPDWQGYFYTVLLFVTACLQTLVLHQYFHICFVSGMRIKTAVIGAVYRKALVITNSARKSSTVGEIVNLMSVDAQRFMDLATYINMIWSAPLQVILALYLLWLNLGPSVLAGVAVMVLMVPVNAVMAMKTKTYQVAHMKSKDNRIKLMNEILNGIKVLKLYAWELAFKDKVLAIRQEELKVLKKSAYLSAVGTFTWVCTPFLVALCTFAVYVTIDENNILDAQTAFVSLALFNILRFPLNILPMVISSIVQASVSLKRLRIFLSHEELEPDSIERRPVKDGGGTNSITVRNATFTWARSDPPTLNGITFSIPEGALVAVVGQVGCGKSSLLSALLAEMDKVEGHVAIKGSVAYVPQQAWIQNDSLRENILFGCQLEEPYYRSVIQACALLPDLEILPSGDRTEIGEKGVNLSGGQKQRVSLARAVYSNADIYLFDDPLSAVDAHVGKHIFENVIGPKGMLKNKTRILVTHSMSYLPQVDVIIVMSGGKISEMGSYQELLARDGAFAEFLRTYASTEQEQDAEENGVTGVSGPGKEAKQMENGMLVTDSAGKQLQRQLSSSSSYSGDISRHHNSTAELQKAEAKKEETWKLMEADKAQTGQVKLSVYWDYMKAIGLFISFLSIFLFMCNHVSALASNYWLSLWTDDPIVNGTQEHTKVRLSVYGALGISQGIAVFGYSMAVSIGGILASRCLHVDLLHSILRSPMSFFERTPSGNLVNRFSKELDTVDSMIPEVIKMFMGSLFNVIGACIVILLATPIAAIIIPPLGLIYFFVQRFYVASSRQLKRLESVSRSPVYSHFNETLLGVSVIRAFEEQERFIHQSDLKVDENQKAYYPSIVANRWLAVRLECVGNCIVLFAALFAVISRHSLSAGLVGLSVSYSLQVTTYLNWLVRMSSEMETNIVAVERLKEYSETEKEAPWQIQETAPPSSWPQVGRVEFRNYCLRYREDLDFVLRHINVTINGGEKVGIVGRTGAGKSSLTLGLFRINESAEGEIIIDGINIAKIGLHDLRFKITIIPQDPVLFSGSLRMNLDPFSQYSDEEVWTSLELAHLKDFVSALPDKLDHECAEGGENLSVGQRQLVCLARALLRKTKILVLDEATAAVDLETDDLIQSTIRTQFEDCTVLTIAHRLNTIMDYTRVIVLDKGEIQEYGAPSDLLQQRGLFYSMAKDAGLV
MRP1 variants, sequence (P33527 with tags, fused parts or gaps): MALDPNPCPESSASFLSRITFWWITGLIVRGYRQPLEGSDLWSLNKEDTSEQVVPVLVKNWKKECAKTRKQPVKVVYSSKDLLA
co-expressed ΔMRP1+L0, sequence (P33527 281-1531, stated change not applied): as the sequence (P33527 281-1531) above
co-expressed ΔMRP1+L0, sequence (P33527 204-281, stated change not applied): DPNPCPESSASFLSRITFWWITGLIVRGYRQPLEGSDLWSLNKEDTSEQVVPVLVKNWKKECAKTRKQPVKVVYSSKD

Regarding `CCN1C(=O)C=CC1=O` [N-ethylmaleimide], the “inhibition of nucleotide trapping” value in data set [1] and in data set [2] was “full inhibition” each time.

With `CCN1C(=O)CC(SC[C@H](NC(=O)CC[C@H](N)C(=O)O)C(=O)NCC(=O)O)C1=O` (stereo partly drawn) [NEM-GS], the “initial rate of ATP-dependent NEM-GS transport” value in data set [3] (50 μM NEM-GS, MRP1 containing membranes) is recorded as “about 250 pmol mg^−1”. Besides, the Km (usually the concentration of substrate that gives half-maximal velocity) in data set [3] (read-out: Km for transport of NEM-GS, wild-type MRP1, Sf9 membrane vesicles) was 150 µM; in data set [4], roughly 400 µM.

Take `COc1ccc2c(c1)c(CC(=O)O)c(C)n2C(=O)c1ccc(Cl)cc1` [indomethacine]: the “efflux of fluorescent dye BCECF” value in data set [5] is “effectively inhibited”.

Source of the values: US20030170730A1, “Assay method, peptides and reagent kits for testing mrp-specific inhibitors” (priority 2000, published 2003).
